{"source": "patent EP0178388A1", "about": "“Quinolinecarboxylic acid derivatives” (KYORIN PHARMACEUTICAL CO., LTD., priority 1984, dated 1986)", "key": {"[1]": {"system": "Peptococcus magnus KY 017", "assay": "In vitro antibacterial activity, MIC (standard strain)", "format": "cell-based", "conditions": "Finegoldia magna, KY017, Peptococcus magnus KY 017, 10^6 cells/ml"}, "P. aeruginosa IID 1210 [2]": {"system": "P. aeruginosa IID 1210", "assay": "MIC against the infecting strain (Table 2)", "format": "cell-based", "conditions": "Pseudomonas aeruginosa, IID1210; P. aeruginosa IID 1210 (Table 2, part 3)"}, "P. aeruginosa IID 1210 [3]": {"system": "P. aeruginosa IID 1210", "assay": "In vivo antibacterial activity against systemic infection in mice", "set-up": "species or system mice (ICR-S)", "conditions": "Pseudomonas aeruginosa, IID1210; P. aeruginosa IID 1210, mice (ICR-S), intraperitoneal infection, oral at 1 hour after infection, challenge dose 2.5 x 10^5 cfu/mouse; read-out: ED50", "method": "Experiment 2 In vivo antibacterial activity against systemic infection in mice (ICR-S)\nThe infections were produced by intraperitoneal infection of a suspension of the bacterial culture corresponding to the germ studied. The product was administered orally at 1 hour after the infection. The 50% effective dose (ED50) which protects 50% of the animals from death caused by the infection was determined from the relation between dosage and survival rate."}}, "note": "Counter-ions that a name gives are not always drawn."}
{"smiles": "CC1CN(c2c(F)cc3c(=O)c(C(=O)O)cn(C4CC4)c3c2Cl)CCN1", "note": "(stereo not drawn) [Example 5, 8-Chloro-l-cyclopropyl-6-fluoro-1,4-dihydro-7-(3-methyl-1-piperazinyl)-4-oxoquinoline-3-carboxylic acid hydrochloride]", "values": [{"measurement": "MIC", "setting": "[1]", "value": 0.1, "unit": "mg/L"}, {"measurement": "MIC", "setting": "P. aeruginosa IID 1210 [2]", "value": 0.78, "unit": "mg/L"}, {"measurement": "ED50", "setting": "P. aeruginosa IID 1210 [3]", "value": 3.2, "unit": "mg/kg"}]}
